≈ marks a conversion by molar mass, not a printed value.
Conditions: for aqueous solubility: pH 6.8

Row | Compound | MDR1-MDCK efflux ratio | intrinsic clearance, human liver microsomes | intrinsic clearance, rat liver microsomes | aqueous solubility | fraction unbound, human plasma | fraction unbound, rat plasma
1 | Cc1nc2cc(=O)[nH]n2c(C)c1CC(=O)OC1CCCCC1 | 1.09 | 10.5 mL/min/kg | 649 mL/min/kg | – | – | –
2 | CCc1csc(NC(=O)c2ccc3c(c2)nc(C)n3C)n1 | – | 33.9 mL/min/kg | 108 mL/min/kg | 39.8 µg/mL (≈ 132 µM) | – | –
3 | Cc1nc(N2CCn3ccnc3C2)c2cnn(C)c2n1 | 3.63 | 10.5 mL/min/kg | ≤ 10.7 mL/min/kg | 32.9 µg/mL (≈ 122 µM) | – | –
4 | N#Cc1ccc2ncnc(N[C@H]3CC[C@H](N4CCOCC4)CC3)c2c1 | 24.6 | 9.63 mL/min/kg | 49.2 mL/min/kg | – | – | –
5 | CNc1ncc(CN(C)CCN2CCCCC2)cn1 | 1.13 | 6.66 mL/min/kg | 57.2 mL/min/kg | – | – | –
6 | C=CC(=O)Nc1cccc(Oc2nc(Nc3ccc(N4CCN(C)CC4)c(F)c3)nc3[nH]ccc23)c1 | 50.6 | 26.8 mL/min/kg | 344 mL/min/kg | – | 0.0109 | 0.00726
7 | NC(=O)Cn1nnc(-c2ccccc2F)n1 | – | – | – | 11.6 µg/mL (≈ 52.2 µM) | – | –
8 | Cc1cc(F)ccc1C1C(=O)NCCN1C(=O)c1ccc2nccn2c1 (stereo not given) | 8.42 | 6 mL/min/kg | 27.7 mL/min/kg | 62.2 µg/mL (≈ 177 µM) | 0.604 | 0.893
9 | COc1c(N)ncnc1N1CCCC(C)(C)CC1 | 0.912 | 37.2 mL/min/kg | 1210 mL/min/kg | 38.4 µg/mL (≈ 153 µM) | – | –
10 | Cc1ccccc1C(=O)N1CCC[C@@H]1Cn1nnn(-c2cccs2)c1=O | 1.11 | 114 mL/min/kg | 929 mL/min/kg | 49 µg/mL (≈ 133 µM) | – | –
11 | Cn1c(=O)c2c(nc3n2CCN3Cc2c(F)cccc2Cl)n(C)c1=O | 1.27 | 11.9 mL/min/kg | 146 mL/min/kg | 5.17 µg/mL (≈ 14.2 µM) | – | –
12 | CN1CCN(c2cccc(C#N)n2)CC1 | – | ≤ 4.74 mL/min/kg | 617 mL/min/kg | – | – | –
13 | CCCn1cc(C(=O)N2CCC(c3n[nH]cc3C(=O)N(C)Cc3ccccc3)CC2)cn1 | 9.45 | 129 mL/min/kg | 561 mL/min/kg | 45.3 µg/mL (≈ 104 µM) | – | –
14 | Cc1cc(N(C)C)nc(N(C)Cc2csc(C)n2)n1 | 0.632 | 30.6 mL/min/kg | 681 mL/min/kg | 47.4 µg/mL (≈ 171 µM) | – | –
15 | Cc1cc(N2CCC(C(=O)NC3CCCCC3)CC2)nc(-c2ccncc2)n1 | – | 67 mL/min/kg | 193 mL/min/kg | – | – | –
16 | CSc1ncccc1C(=O)Nc1ccc(N2CCCCC2=O)cc1 | 8.14 | ≤ 4.74 mL/min/kg | 17.8 mL/min/kg | 8.97 µg/mL (≈ 26.3 µM) | – | –
17 | COc1ccc(CN2CCc3nc(-c4cccnc4)nc(O)c3C2)c(C)c1C | 3.34 | 19.2 mL/min/kg | 51.7 mL/min/kg | 8.44 µg/mL (≈ 22.4 µM) | – | –
18 | CN(Cc1ccc(N)nc1)c1nc(C(F)(F)F)cs1 | 0.598 | ≤ 4.74 mL/min/kg | 116 mL/min/kg | – | – | –
19 | Cc1ccc2oc([C@H]3CCN(Cc4cccs4)C3)nc2c1 | 0.391 | 127 mL/min/kg | 2000 mL/min/kg | 26.3 µg/mL (≈ 88.1 µM) | – | –
20 | COc1cc2c(cc1OC)[C@@H]1Cc3ccc(OC)c(OC)c3CN1CC2 | 0.542 | 5.78 mL/min/kg | 85.5 mL/min/kg | – | – | –
21 | Cn1ncnc1COc1nn2c(-c3c(F)cccc3F)nnc2cc1C1CCC1 | 73.4 | ≤ 4.74 mL/min/kg | 40.8 mL/min/kg | 41.4 µg/mL (≈ 104 µM) | – | –
22 | Cc1cccnc1CNC(=O)c1ccc(Cl)s1 | – | 39.6 mL/min/kg | 399 mL/min/kg | – | – | –
23 | Cc1cccc(NC(=O)CN(C)c2ncccc2F)n1 | 0.657 | 16.2 mL/min/kg | 404 mL/min/kg | 36.8 µg/mL (≈ 134 µM) | – | –
24 | O=C([C@H]1CCCN(Cc2ccc(F)cc2)C1)N1CCc2ccccc2C1 | 0.792 | 336 mL/min/kg | 3660 mL/min/kg | 50 µg/mL (≈ 142 µM) | – | –
25 | Cc1c(C(=O)Nc2ccc(N3C[C@@H](C)O[C@H](C)C3)nc2)cccc1-c1ccc(OC(F)(F)F)cc1 | 1.16 | 24 mL/min/kg | 74.9 mL/min/kg | – | – | –
26 | CCc1nnsc1C(=O)Nc1cccc(-c2nnc3n2CCCCC3)c1 | 47.2 | 15 mL/min/kg | 142 mL/min/kg | 32.2 µg/mL (≈ 87.5 µM) | – | –
27 | Cc1cc(C(=O)NCCc2ccccn2)c(C)s1 | 0.639 | 63.1 mL/min/kg | 232 mL/min/kg | 41.1 µg/mL (≈ 158 µM) | – | –

Source: the Biogen ADME set (Fang et al. 2023)
